We go through 15 molecules from PMC9086926 (RSC Advances, 2018).

The nature of data set [1]: Absorptive permeability across traditional 21 day Caco-2 cell model. As to conditions: human. (In general: Passage across Caco-2 layers is used to estimate intestinal permeability.)
A short description of data set [2]: Absorptive permeability across 7 day fast model. As to conditions: human, Caco-2.
For data set [3] the following is noted: cited from earlier work.

Each structure is given as a SMILES string.

A word on the Papp A→B: it is how fast a substance crosses the layer from the apical side. Lower therefore signals slow passage.

As for `CC(NC(C)(C)C)C(=O)c1cccc(Cl)c1` (stereo not shown) [Bupropion], the Papp A→B at 25 μM worked out at 16.6 ± 0.99 ×10⁻⁶ cm/s in data set [1] and 12.9 ± 0.48 ×10⁻⁶ cm/s in data set [2].

In the case of `NC(=O)N1c2ccccc2C=Cc2ccccc21` [Carbamazepine], in data set [3], the “FA (human absorption fraction)” value is reported as 100%. Moreover, the Papp A→B at 25 μM in data set [1] stood at 20.9 ± 1.93 ×10⁻⁶ cm/s; in data set [2] it was 19.5 ± 0.87 ×10⁻⁶ cm/s.

For the molecule `O=C(N[C@H](CO)[C@H](O)c1ccc([N+](=O)[O-])cc1)C(Cl)Cl` [Chloramphenicol], the Papp A→B at 25 μM in data set [1] was found to be 8.17 ± 0.06 ×10⁻⁶ cm/s; in data set [2], 7.12 ± 0.04 ×10⁻⁶ cm/s.

Consider `CCc1cc(C(N)=S)ccn1` [Ethionamide], for which the “FA (human absorption fraction)” value in data set [3] is recorded as 80%. For the same molecule, the values for the Papp A→B at 25 μM in data set [1] and in data set [2] were 23.8 ± 0.94 ×10⁻⁶ cm/s and 20.4 ± 5.5 ×10⁻⁶ cm/s, respectively.

In data set [1], `CCOC(=O)C1=C(C)NC(C)=C(C(=O)OC)C1c1cccc(Cl)c1Cl` (stereo not shown) [Felodipine] registered a Papp A→B at 25 μM of 4.34 ± 0.63 ×10⁻⁶ cm/s.

Regarding `CC(=O)N1CCN(c2ccc(OCC3COC(Cn4ccnc4)(c4ccc(Cl)cc4Cl)O3)cc2)CC1` (stereo not shown) [Ketoconazole], the “FA (human absorption fraction)” value in data set [3] is reported as 76%. Besides, the Papp A→B at 25 μM in data set [1] stood at 9.61 ± 0.01 ×10⁻⁶ cm/s; in data set [2], 8.33 ± 0.93 ×10⁻⁶ cm/s.

`CC(C(=O)O)c1cccc(C(=O)c2ccccc2)c1` (stereo not shown) [Ketoprofen]: the Papp A→B at 25 μM turned out to be 19.2 ± 1.93 ×10⁻⁶ cm/s in data set [1] and 15 ± 1.97 ×10⁻⁶ cm/s in data set [2].

On to `Nc1nnc(-c2cccc(Cl)c2Cl)c(N)n1` [Lamotrigine], for which the “FA (human absorption fraction)” value in data set [3] is recorded as 98%.

With `COCCc1ccc(OCC(O)CNC(C)C)cc1` (stereo not shown) [Metoprolol], the Papp A→B at 25 μM in data set [1] stood at 12.1 ± 0.39 ×10⁻⁶ cm/s; in data set [2], 11.8 ± 0.25 ×10⁻⁶ cm/s.

For `COc1ccc2[nH]c([S+]([O-])Cc3ncc(C)c(OC)c3C)nc2c1` (stereo not shown) [Omeprazole], in data set [3], the “FA (human absorption fraction)” value is given as 80%. Besides, the Papp A→B at 25 μM in data set [1] is 12.6 ± 2.01 ×10⁻⁶ cm/s; in data set [2], 11.4 ± 0.47 ×10⁻⁶ cm/s.

Turning to `CC(C)NCC(O)COc1cccc2ccccc12` (stereo not shown) [Propranolol], the results for the Papp A→B at 25 μM in data set [1] and in data set [2] were 10.6 ± 1.66 ×10⁻⁶ cm/s and 9.37 ± 0.03 ×10⁻⁶ cm/s, respectively.

In the case of `COC(=O)[C@H]1[C@H]2C[C@@H]3c4[nH]c5cc(OC)ccc5c4CCN3C[C@H]2C[C@@H](OC(=O)c2cc(OC)c(OC)c(OC)c2)[C@@H]1OC` [Reserpine], the “FA (human absorption fraction)” value in data set [3] is listed as 50%. Besides, the Papp A→B at 25 μM in data set [1] amounted to 3.5 ± 0.69 ×10⁻⁶ cm/s; in data set [2], 3.6 ± 0.43 ×10⁻⁶ cm/s.

`Nc1ccc(S(=O)(=O)Nc2ncccn2)cc1` [Sulfadiazine]: the “FA (human absorption fraction)” value in data set [3] was 65%. The Papp A→B at 25 μM in data set [1] was found to be 9.76 ± 1.05 ×10⁻⁶ cm/s.

As for `CC(C)(C)NCC(O)c1cc(O)cc(O)c1` (stereo not shown) [Terbutaline], the “FA (human absorption fraction)” value in data set [3] is 73%. Moreover, the Papp A→B at 25 μM was 15.6 ± 1.28 ×10⁻⁶ cm/s in data set [1] and 16.6 ± 0.7 ×10⁻⁶ cm/s in data set [2].

Consider `CC(=O)CC(c1ccccc1)c1c(O)c2ccccc2oc1=O` (stereo not shown) [Warfarin sodium], for which the Papp A→B at 25 μM in data set [1] is 15.31 ± 0.002 ×10⁻⁶ cm/s; in data set [2] it was 14.44 ± 0.11 ×10⁻⁶ cm/s.
